Blank lines part the entries; values can stand above or below the compound they belong to.
Biological target: RORγ/γt (Mus musculus, UniProt P51450, T352K)
Experiment: RORγ/γt-luc reporter S2 cell assay / HTS (firefly luciferase)
Conditions: for Curve Class: RORγ/γt HTS concentration response curve class; for 80% Inhib. @: RORγ/γt reporter, S2 cells, concentration for 80% inhibition
Source text: The Drosophila S2 cell line was originally purchased from Invitrogen and was maintained in Schneider's medium supplemented with 10% heat-inactivated bovine fetal calf serum and antibiotics (Invitrogen). Gal4 DNA binding domain (G4 DBD) corresponding to amino acids 1 through 147 of Gal4 protein was PCR amplified to make a fusion construct with mouse RORγt (amino acids 79 to the carboxyl terminal end) lacking its DNA binding domain. The resulting chimeric gene was subcloned into the copper inducible pMT/V5-His A vector (available from Invitrogen). In a similar manner, Gal4 fusion constructs were prepared with mouse RORα (amino acids 142 to end) or Drosophila DHR3 (amino acids 120 to end).
In order to generate stable cell lines, cells were co-transfected with pMT-G4 DBD-RORγt, pMT-G4 DBD-RORα, pMT-G4 DBD-DHR3, or pMT-G4DBDVP16 and pHygro plasmids (Invitrogen) and screened for resistant colonies in the presence of hygromycin (0.3 mg/mL). More than 150 independent RORγ stable clones with luciferase reporters (pMt-RORγ_luc) were tested for their suitability for the high-throughput screening (HTS) based on the following criteria: high signal-to background ratio in 384- and 1,536-well plates, their high induction rate upon the addition of copper, and RORγ/γt specificity probed by the dsRORγ- or RORγ/γt antagonist-mediated suppression. Positive clones were further transfected with pUAST-firefly luciferase, polIII-Renilla luciferase, and pCoPuro (Iwaki, Figuera et al. 2003) (“Rapid selection of Drosophila S2 cells with the puromycin resistance gene.” Biotechniques 35(3): 482-4, 486.) and selected with puromycin (2.5 ug/ml). […] Using similar methods, stable clones with genomic integration of the luciferase reporters and other reporters were generated such as pMT-RORα_luc, pMT-DHR3_luc, or pMT-VP16_luc.
600 G4 DBD-RORγ/γt-luc reporter (#25) or G4 DBD-VP16-luc reporter cells were distributed into each well of 1,536-well white bottom plates in 4 μl S2 cell culture volume containing hygromicin (300 μg/ml) and puromycin (2 μg/ml). Small compounds in seven different concentrations range from 46 μM to 1.7 nM were pin-transferred (23 nl) by a robot (Inglese et al., 2006, Proc. Natl. Acad. Sci. 103:11473-8). […] After 20-hour incubation at ambient temperature, 1.5 μl firefly luciferase detection mix was added and the luciferase activities were measured in 10 min. ViewLux luminometers were used for measuring luciferase signal.
Since their cognate DNA binding sites were not well characterized, the DNA binding domains (DBD) of RORγ/γt, RORα(mouse homolog for PORγ), and DHR3 (Drosophila orthologue for ROR family proteins) were replaced with the heterologous yeast GAL4 DBD. The transcriptionally active domain of general transcriptional activator VP16 was also fused with GAL4 DBD.

RORγ/γt, sequence (P51450 with tags, fused parts or gaps T352K): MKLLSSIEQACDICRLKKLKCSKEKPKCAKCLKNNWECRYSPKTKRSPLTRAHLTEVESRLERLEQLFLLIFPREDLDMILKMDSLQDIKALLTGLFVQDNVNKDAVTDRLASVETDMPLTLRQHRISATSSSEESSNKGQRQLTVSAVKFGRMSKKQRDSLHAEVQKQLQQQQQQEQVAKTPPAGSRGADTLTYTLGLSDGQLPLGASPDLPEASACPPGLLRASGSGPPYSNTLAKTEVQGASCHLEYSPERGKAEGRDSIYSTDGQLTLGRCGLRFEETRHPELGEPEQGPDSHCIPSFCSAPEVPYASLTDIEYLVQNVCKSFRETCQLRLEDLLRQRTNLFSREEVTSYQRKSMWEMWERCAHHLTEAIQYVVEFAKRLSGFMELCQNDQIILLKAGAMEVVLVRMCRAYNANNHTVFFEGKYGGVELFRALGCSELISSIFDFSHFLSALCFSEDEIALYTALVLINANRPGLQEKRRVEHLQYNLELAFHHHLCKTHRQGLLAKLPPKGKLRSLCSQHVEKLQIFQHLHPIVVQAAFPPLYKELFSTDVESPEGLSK

SMILES: CCOC(=O)[C@@H]1[C@H]2COc3ccccc3[C@@H]2N2C(=O)N(c3cccc(C)c3)C(=O)[C@]12C [MLS001066305-01]
- AC50: 0.891 µM
- Curve Class: 4

SMILES: CCOC(=O)[C@@H]1[C@H]2COc3cc(OC)ccc3[C@@H]2N2C(=O)N(c3ccc(Br)cc3)C(=O)[C@@]12C [MLS001066318-01]
- AC50: 7.94 µM
- Curve Class: −2.1

SMILES: CCOC(=O)[C@H]1[C@H]2COc3cc(OC)ccc3[C@@H]2N2C(=O)N(c3ccc(Br)cc3)C(=O)[C@@]12C [MLS001066259-01]
- Curve Class: 4

SMILES: CCOC(=O)[C@H]1[C@H]2COc3cc(OC)ccc3[C@@H]2N2C(=O)N(c3cccc(Cl)c3)C(=O)[C@@]12C [MLS001066321-01]
- AC50: 6.31 µM
- Curve Class: 4

SMILES: CCOC(=O)[C@@H]1[C@H]2COc3cc(OC)ccc3[C@H]2N2C(=O)N(c3ccc(C)cc3)C(=O)[C@@]12C [MLS001066297-01]
- AC50: 0.891 µM
- Curve Class: 4

SMILES: CCOC(=O)[C@@H]1[C@H]2COc3ccccc3[C@@H]2N2C(=O)N(c3cccc(Cl)c3)C(=O)[C@]12C [MLS001066286-01]
- Curve Class: 4

SMILES: CCOC(=O)[C@@H]1[C@H]2COc3ccccc3[C@H]2N2C(=O)N(c3cccc(F)c3)C(=O)[C@]12C [MLS001066256-01]
- Curve Class: 4

SMILES: CCOC(=O)[C@@H]1[C@H]2COc3ccc(Br)cc3[C@@H]2N2C(=O)N(c3ccc(OC)cc3)C(=O)[C@]12C [MLS001066294-01]
- AC50: 0.112 µM
- Curve Class: 4

SMILES: CCOC(=O)[C@@H]1[C@H]2COc3ccc(Br)cc3[C@H]2N2C(=O)N(c3cccc(Cl)c3)C(=O)[C@]12C [MLS001066096-01]
- AC50: 8.91 µM
- Curve Class: −2.2

SMILES: CCOC(=O)[C@@H]1[C@H]2COc3cc(OC)ccc3[C@@H]2N2C(=O)N(c3ccc(C(F)(F)F)cc3)C(=O)[C@@]12C [MLS001066319-01]
- AC50: 15.8 µM
- Curve Class: −3

SMILES: CCOC(=O)[C@@H]1[C@H]2COc3ccccc3[C@@H]2N2C(=O)N(c3ccc(Cl)cc3)C(=O)[C@]12C [MLS001066434-01]
- AC50: 3.16 µM
- Curve Class: 4

SMILES: CCOC(=O)[C@@H]1[C@H]2COc3ccccc3[C@@H]2N2C(=O)N(c3ccc(C)cc3)C(=O)[C@]12C [MLS001066443-01]
- AC50: 3.98 µM
- Curve Class: 4

- IC50: 38.7 µM
- 80% Inhib. @: 161.2 µM
SMILES: CC(C)[C@@H](NC(=O)C1CCN(C(=O)[C@@H]2CCCN2C(=O)OC(C)(C)C)CC1)C(=O)NCc1ccc(F)cc1 [MLS001141034-02]

SMILES: CCOC(=O)[C@@H]1[C@H]2COc3ccccc3[C@H]2N2C(=O)N(c3ccc(OC)cc3)C(=O)[C@]12C [MLS001066225-01]
- Curve Class: 4

SMILES: CCOC(=O)[C@@H]1[C@H]2COc3ccccc3[C@@H]2N2C(=O)N(c3ccccc3)C(=O)[C@]12C [MLS001066492-01]
- AC50: 0.141 µM
- Curve Class: 4

SMILES: CCOC(=O)[C@@H]1[C@H]2COc3ccccc3[C@H]2N2C(=O)N(c3ccccc3)C(=O)[C@]12C [MLS001066502-01]
- AC50: 0.794 µM
- Curve Class: 4

SMILES: CCOC(=O)[C@@H]1[C@H]2COc3cc(OC)ccc3[C@@H]2N2C(=O)N(c3ccc(C(F)(F)F)cc3)C(=O)[C@]12C [MLS001066230-01]
- Curve Class: 4

SMILES: CCOC(=O)[C@@H]1[C@H]2COc3ccccc3[C@@H]2N2C(=O)N(c3cccc(Cl)c3)C(=O)[C@@]12C [MLS001066276-01]
- AC50: 17.8 µM
- Curve Class: −3

SMILES: CCOC(=O)[C@@H]1[C@H]2COc3cc(OC)ccc3[C@H]2N2C(=O)N(c3ccc(C(F)(F)F)cc3)C(=O)[C@@]12C [MLS001066250-01]
- AC50: 4.47 µM
- Curve Class: 4

SMILES: CCOC(=O)[C@@H]1[C@H]2COc3ccc(Br)cc3[C@@H]2N2C(=O)N(c3cccc(F)c3)C(=O)[C@@]12C [MLS001066026-01]
- AC50: 17.8 µM
- Curve Class: −2.2

SMILES: CCOC(=O)[C@H]1[C@H]2COc3cc(OC)ccc3[C@@H]2N2C(=O)N(c3ccc(Cl)cc3)C(=O)[C@@]12C [MLS001066308-01]
- Curve Class: 4

SMILES: CCOC(=O)[C@@H]1[C@H]2COc3ccc(Br)cc3[C@H]2N2C(=O)N(c3ccc(F)cc3)C(=O)[C@@]12C [MLS001066263-01]
- AC50: 0.0045 µM
- Curve Class: 4

SMILES: CCOC(=O)[C@@H]1[C@H]2COc3cc(OC)ccc3[C@@H]2N2C(=O)N(c3ccc(Cl)cc3)C(=O)[C@@]12C [MLS001066268-01]
- AC50: 8.91 µM
- Curve Class: −2.1

SMILES: CCOC(=O)[C@@H]1[C@H]2COc3ccccc3[C@H]2N2C(=O)N(c3ccc(Cl)cc3)C(=O)[C@@]12C [MLS001066454-01]
- AC50: 11.2 µM
- Curve Class: 4

SMILES: CCOC(=O)[C@@H]1[C@H]2COc3ccc(Br)cc3[C@@H]2N2C(=O)N(c3ccc(C)cc3)C(=O)[C@]12C [MLS0010660292-01]
- AC50: 11.2 µM
- Curve Class: 4

SMILES: CCOC(=O)[C@@H]1[C@H]2COc3cc(OC)ccc3[C@@H]2N2C(=O)N(c3cccc(Cl)c3)C(=O)[C@]12C [MLS001066291-01]
- AC50: 0.112 µM
- Curve Class: 4

SMILES: CCOC(=O)[C@@H]1[C@H]2COc3cc(OC)ccc3[C@H]2N2C(=O)N(c3ccc(F)cc3)C(=O)[C@@]12C [MLS001066248-01]
- Curve Class: 4

SMILES: CCOC(=O)[C@@H]1[C@H]2COc3ccc(Br)cc3[C@H]2N2C(=O)N(c3cccc(F)c3)C(=O)[C@]12C [MLS001066046-01]
- AC50: 0.0126 µM
- Curve Class: 4

SMILES: CCOC(=O)[C@@H]1[C@H]2COc3ccc(Br)cc3[C@H]2N2C(=O)N(c3ccc(Cl)cc3)C(=O)[C@@]12C [MLS001066313-01]
- AC50: 0.0447 µM
- Curve Class: 4

- IC50: 16.7 µM
- 80% Inhib. @: 40.36 µM
SMILES: CN1CCN(C(=O)CCN2C(=O)/C(=C\c3ccccc3F)SC2=S)CC1 [MLS001201644-02]

SMILES: CCOC(=O)[C@@H]1[C@H]2COc3ccc(Br)cc3[C@H]2N2C(=O)N(c3ccc(C)cc3)C(=O)[C@]12C [MLS001066302-01]
- Curve Class: 4

SMILES: CCOC(=O)[C@@H]1[C@H]2COc3cc(OC)ccc3[C@@H]2N2C(=O)N(c3cccc(Cl)c3)C(=O)[C@@]12C [MLS001066281-01]
- AC50: 11.2 µM
- Curve Class: −2.2

- IC50: 14.7 µM
- 80% Inhib. @: 45.85 µM
SMILES: COc1ccccc1CNC(=O)[C@@H](NC(=O)C1CCN(C(=O)[C@@H]2CCCN2C(=O)OC(C)(C)C)CC1)C(C)C [MLS001157801-02]

SMILES: CCOC(=O)[C@@H]1[C@H]2COc3cc(OC)ccc3[C@@H]2N2C(=O)N(c3cccc(F)c3)C(=O)[C@@]12C [MLS001066231-01]
- AC50: 10 µM
- Curve Class: −2.1

SMILES: CCOC(=O)[C@@H]1[C@H]2COc3ccccc3[C@@H]2N2C(=O)N(c3ccc(F)cc3)C(=O)[C@@]12C [MLS001066483-01]
- AC50: 12.6 µM
- Curve Class: −2.2

SMILES: CCOC(=O)[C@@H]1[C@H]2COc3ccc(Br)cc3[C@@H]2N2C(=O)N(c3ccc(F)cc3)C(=O)[C@]12C [MLS001066243-01]
- AC50: 0.891 µM
- Curve Class: 4

From patent US9101600B2, “Compounds as RORγt modulators and uses thereof” (New York University, priority 2010, dated 2015)
